Patent US20200377496A1, “INDOLE AND BENZIMIDAZOLE DERIVATIVES AS DUAL 5-HT2A and 5-HT6 RECEPTOR ANTAGONISTS” (ADAMED PHARMA, S.A., priority 2018, published 2020)
pKi: −log10 of the molar value. Read-outs that look alike come from different tables or passages of the source.

Experiments:
[1] = biological target: human 5-HT2A receptor (Homo sapiens, UniProt P28223); experiment: 5-HT2A receptor binding assay ([3H]-ketanserin radioligand)
Experimental: (§1) Preparation of Solutions of Test and Reference Compounds.
1 mM stock solutions of tested compounds were prepared in DMSO. Serial dilutions of compounds were prepared in 96-well microplate in assay buffers using automated pipetting system epMotion 5070 (Eppendorf). Each compound was tested in 10 concentrations from 1.0E-6 to 1.0E-11 M (final concentration).
5-HT2A Receptor Binding Assay.
Radioligand binding was performed using membranes from CHO K1 cells stably transfected with the human 5-HT2A receptor (PerkinElmer). All assays were carried out in duplicates. 50 μl working solution of the tested compounds, 50 μl [3H]-ketanserin (final concentration 1 nM) and 150 μl diluted membranes (7 μg protein per well) prepared in assay buffer (50 mM Tris, pH 7.4, 4 mM CaCl2, 0.1% ascorbic acid) were transferred to polypropylene 96-well microplate using 96-wells pipetting station Rainin Liquidator (MettlerToledo). Mianserin (10 μM) was used to define nonspecific binding. Microplate was covered with a sealing tape, mixed and incubated for 60 minutes at 27° C. The reaction was terminated by rapid filtration through GF/B filter mate presoaked with 0.5% polyethyleneimine for 30 minutes. Ten rapid washes with 200 μl 50 mM Tris buffer (4° C., pH 7.4) were performed using automated harvester system Harvester-96 MACH III FM (Tomtec). The filter mates were dried at 37° C. in forced air fan incubator and then solid scintilator MeltiLex was melted on filter mates at 90° C. for 5 minutes. Radioactivity was counted in MicroBeta2 scintillation counter (PerkinElmer). Data were fitted to a one-site curve-fitting equation with Prism 6 (GraphPad Software) and Ki values were estimated from the Cheng-Prusoff equation.

[2] = test system: head twitches induced by 5-HT2A/C receptor agonist DOI; experiment: DOI-induced head twitches in Wistar rats; format: in vivo; details: hydrochloride salt p.o. 180 min before observation; DOI 2.5 mg/kg i.p.; male Wistar rats
Experimental: Biological Example 3. Effects of Compounds 1 and 17, on Head Twitches Induced by a 5-HT2A/C receptor agonist, 1-(2,5-dimethoxy-4-Iodophenyl)-2-aminopropane hydrochloride (DOI) in Wistar Rats
Drug-naive male Wistar rats (Charles River, Sulzfeld, Germany) were used. Rats were housed four per standard plastic cage and kept in a room with constant environmental conditions (22±1° C., relative humidity 60%, a 12:12 light-dark cycle with lights on at 07:00 a.m.). Animals were supplied by the breeder 2 weeks before the onset of behavioral procedures. During this time, the subjects were weighted and handled several times. The rats were also habituated to p.o. administration of tested compounds in form of hydrochloride salt by gavage dosing of distilled water (1-2 mL). Tap water and standard lab chow (Labofeed H, WPIK, Kcynia, Poland) was available ad libitum.
All tests were carried out in a sound-attenuated experimental room between 10:00 a.m. and 04:00 p.m. DOI-induced head twitches were scored as described by Millan et al. (2000). Rats were injected with DOI (2.5 mg/kg, i.p.) and placed in glass observation cages (25×25×40 cm, W×H×L) with wood chip bedding on the floor. Five minutes later, head twitches were counted for 5 min. (300 s) by a trained observer. […]
Total numbers of head twitches (n/5 min.) were analyzed with the aid of the Kruskal-Wallis analysis of variance (ANOVA). […]

[3] = biological target: human GPCR 5-HT6 (Homo sapiens, UniProt P50406); experiment: Cellular aequorin-based functional assay, 5-HT6; format: cell-based; details: for 5-HT6 AGO EC50 [nM]: agonist mode, CHO-K1 aequorin cells; for Kb: antagonist mode, reference agonist serotonin 40 nM (EC80), read-out: 5-HT6 ANT Kb
Sequence of human GPCR 5-HT6 (P50406 whole entry): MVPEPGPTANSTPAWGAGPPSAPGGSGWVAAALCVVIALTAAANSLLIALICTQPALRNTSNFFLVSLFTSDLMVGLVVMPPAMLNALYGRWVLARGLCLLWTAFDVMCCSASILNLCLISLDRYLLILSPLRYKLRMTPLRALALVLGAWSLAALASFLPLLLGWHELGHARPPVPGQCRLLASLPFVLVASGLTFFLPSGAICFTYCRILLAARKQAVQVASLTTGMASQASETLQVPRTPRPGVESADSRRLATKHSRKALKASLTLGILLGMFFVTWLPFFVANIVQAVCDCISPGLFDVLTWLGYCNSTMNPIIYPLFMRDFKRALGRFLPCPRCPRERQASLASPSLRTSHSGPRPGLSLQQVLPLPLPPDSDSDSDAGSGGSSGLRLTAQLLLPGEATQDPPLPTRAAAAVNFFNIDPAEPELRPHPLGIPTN
Experimental: as §1
1 mM stock solutions of the tested compounds were prepared in DMSO. Serial dilutions were prepared in 96-well microplate in assay buffers using automated pipetting system epMotion 5070 (Eppendorf). Two independent experiments in duplicates were performed and 6 to 10 concentrations were tested.
5-HT2A and 5-HT6 Functional Activity Assays.
Cellular aequorin-based functional assays were performed with γ-irradiated recombinant CHO-K1 cells expressing mitochondrially-targeted Aequorin, human GPCR (5-HT2A or 5-HT6) and the promiscuous G protein α16 (PerkinElemer). Assays were performed according to the standard protocol provided by the manufacturer. After thawing, cells were transferred to assay buffer (DMEM/HAM's F12 with 0.1% protease-free BSA) and centrifuged. Cell pellet was resuspended in assay buffer and coelenterazine h was added at final concentrations of 5 μM. Cell suspension was incubated at 21° C., protected from light with constant agitation, for 4 hours and then diluted with assay buffer to a concentration of 250,000 cells/ml. After 1 hour incubation 50 yl cell suspension was dispensed using automatic injectors built in radiometric and luminescence plate counter MicroBeta2 LumiJET (PerkinElmer, USA) into white opaque 96-well microplate preloaded with tested compounds. Immediate light emission generated following calcium mobilization was recorded for 30-60 seconds. In antagonist mode, after 15-30 minutes incubation reference agonist was added to the above assay mix and light emission was recorded again. Final concentration of reference agonist was equal EC80: serotonin 40 nM for 5-HT6 receptor and α-methylserotonin 30 nM for 5-HT2A receptor. The assays were performed in the agonist mode (5-HT6 AGO and 5-HT2A AGO) as well as antagonist mode (5-HT6 ANT and 5-HT2A ANT).
IC50 and EC50 were determined by non-linear regression analysis using GraphPad Prism 6.0 software. The log IC50 was used to obtain the Kb by applying the Cheng-Prusoff approximation.

Sequence of human 5-HT2A receptor (P28223 whole entry): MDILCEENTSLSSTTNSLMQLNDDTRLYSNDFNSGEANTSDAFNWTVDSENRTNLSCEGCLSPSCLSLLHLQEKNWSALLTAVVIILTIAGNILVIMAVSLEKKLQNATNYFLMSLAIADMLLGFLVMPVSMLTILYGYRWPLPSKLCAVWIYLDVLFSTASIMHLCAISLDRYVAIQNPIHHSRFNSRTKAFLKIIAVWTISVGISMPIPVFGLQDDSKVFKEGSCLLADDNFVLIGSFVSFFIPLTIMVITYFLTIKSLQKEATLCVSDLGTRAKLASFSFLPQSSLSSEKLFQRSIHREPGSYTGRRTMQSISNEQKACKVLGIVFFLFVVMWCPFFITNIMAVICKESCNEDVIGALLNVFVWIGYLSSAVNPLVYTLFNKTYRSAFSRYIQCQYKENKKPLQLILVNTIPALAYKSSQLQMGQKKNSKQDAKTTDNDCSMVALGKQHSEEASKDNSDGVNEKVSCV

SMILES | pKi ([1]; membranes from CHO K1 cells with human 5-HT2A receptor, [3H]-ketanserin 1 nM, read-out: 5-HT2A Ki) | minimum effective dose (MED), attenuation of DOI-induced head twitches [2] | 5-HT6 AGO EC50 [nM] [3] | Kb [3] | pKi [1]
FC(F)(F)c1nc2c(N3CCNCC3)cccc2n1Cc1ccccc1 [Compound 1, 1-benzyl-4-(piperazin-1-yl)-2-(trifluoromethyl)-1H-benzimidazole] | 8.38 | 3.0 mg/kg | N.C. | 2.5 nM | 
FC(F)(F)c1cc2c(N3CCNCC3)cccc2n1Cc1ccco1 [Compound 17, 1-(furan-2-ylmethyl)-4-(piperazin-1-yl)-2-(trifluoromethyl)-1H-indole] |  | 1.0 mg/kg | N.C. | 0.47 nM | 8.80
